According to patent US9981946B2, “Pyridine-substituted 2-aminopyridine protein kinase inhibitors” (CHIA TAI TIANQING PHARMACEUTICAL GROUP CO., LTD, priority 2014, dated 2018):

Tested on: human non-small cell lung carcinoma NCI-H2228 xenografts
Assay: Therapeutic effect on NCI-H2228 xenografts in nude mice
Type: in vivo
Conditions: D0-13 once a day; for Average tumor volume D0: D0 baseline at grouping
Experimental: The following experimental method was used: Nude mice was inoculated subcutaneously with human non-small cell lung carcinoma NCI-H2228 cells, the mice were randomly grouped (D0) and administered until the tumor grew to 80-200 mm^3. Measuring the tumor volume, weighing the mice, and recording the data twice a week. Tumor volume (V) was calculated as:
[…], wherein a and b represented length and width respectively.
T/C(%)=(T-T0)/(C-C0)×100, wherein T, C respectively represented the tumor volume at the end of the experiment; T0, C0 respectively represented the tumor volume at the start of the experiment.
When tumor regression was observed, T/C(%)=(T-T0)/T0×100, wherein T was the tumor volume at the end of the experiment; T0 was the tumor volume at the start of the experiment.
In the table: the solvent group (distilled water containing 0.1% Tween-80) was a control group, the compound of the treatment groups was formulated with distilled water containing 0.1% Tween-80.
D0-20 represented administrating once a day from day 0 (D0) for consecutive 21 days; D0-13 represented administrating once a day from day 0 (D0) for consecutive 14 days.
P value was obtained from student's t test compared with the control group.
n was the number of mice, for the control group, the number of test mice n was 12, and n was 6 for the treatment group.

## COc1cc(N2CCNC[C@@H]2C)ncc1-c1cnc(N)c(O[C@H](C)c2c(Cl)ccc(F)c2Cl)c1 [compound of formula I, 5-((R)-1-(2,6-dichloro-3-fluorophenyl)ethoxy)-4′-methoxy-6′-((S)-2-methylpiperazin-1-yl)-3,3′-bipyridin-6-amine]
12.5 mg/kg PO
  Average tumor volume D0: 134.3 mm^3
12.5 mg/kg PO, D21
  % T/C D21: 22%
  Average tumor volume D21: 394.8 mm^3
12.5 mg/kg PO, D21, 100-T/C(%)
  % Inhibition rate D21: 78%
25 mg/kg PO
  Average tumor volume D0: 131.0 mm^3
25 mg/kg PO, D21
  Average tumor volume D21: 21.7 mm^3
25 mg/kg PO, D21, tumor regression, T/C=(T-T0)/T0×100
  % T/C D21: −83%
